Experimental findings from article PMC10566733 (PLOS ONE, 2023) are described below.

The conditions of series [1]: endothelial monolayers absent; FITC-TAT 10 μM; Fig 1A. The method, then: (§1) Briefly, the cells were seeded onto 24-well culture inserts (Falcon Permeable Support for 24-well plate; cat. #353104), and one-half of the medium was replaced every other day, and the cells were cultured for 5 days prior to the performance of a permeability assay. On the day of the assay, the culture medium was replaced with serum-free DMEM with FITC-linked peptides or bovine serum albumin (Sigma).

In series [2] the test system is monolayer of bEnd.3 mouse brain endothelial cells. As to the kind of experiment: Permeability across a monolayer of brain endothelial cells (in vitro BBB model). Further details: Diffusion of FITC-TAT across bEnd.3 monolayer / Diffusion of FITC-linked peptide across bEnd.3 monolayer / Diffusion of FITC-TAT across bEnd.3 monolayer, FITC-TAT + TAT / Diffusion of FITC-TAT across bEnd.3 monolayer, FITC-TAT + TATK/R>A: unit not given here. The following applies: for Diffusion of FITC-TAT across bEnd.3 monolayer, FITC-TAT + TAT: FITC-TAT 10 μM coupled with non-FITC TAT 10 μM; for Diffusion of FITC-TAT across bEnd.3 monolayer, FITC-TAT + TAT / Diffusion of FITC-TAT across bEnd.3 monolayer, FITC-TAT + TATK/R>A / Diffusion of FITC-TAT across bEnd.3 monolayer / Diffusion of FITC-linked peptide across bEnd.3 monolayer: fluorescence spectrophotometry; for Diffusion of FITC-TAT across bEnd.3 monolayer, FITC-TAT + TATK/R>A: FITC-TAT 10 μM coupled with non-FITC TAT^K/R>A 10 μM; for Diffusion of FITC-TAT across bEnd.3 monolayer: bEnd.3 monolayer on Transwell, serum-free DMEM. Type of series: in vitro ADME.

The test system of series [3] is monolayer of bEnd.3 brain endothelial cells. The following applies: 1000 μM TAT; Fig 5A. The method, then: as §1
Medium collected from cell culture in vitro (12 μl medium per culture) and tissue samples harvested from mice in vivo were denatured by boiling in lysis buffer, separated by electrophoresis, transferred onto PVDF membranes, and imaged after incubation in primary and secondary antibodies as described previously for in vitro [55] and in vivo [57] experiments. The following primary antibodies were used: anti-albumin (1:2000; GeneTex, cat. #102419, for the in vitro experiments; 1:5000; Abcam, cat. #ab106582, for the in vivo experiments) and anti-ɑ-tubulin (1:5000; GeneTex, cat. #GTX628802) antibodies, and the following secondary antibodies were used: anti-rabbit (1:5000; GeneTex, cat. #GTX213110-01), anti-mouse (1:1000; GeneTex, cat. #GTX213111-01), and anti-chicken (1:1000; Abcam, cat. #ab97135) antibodies.

Where [4] appears, read: diffusion time 0.1 h, individual cultures n = 3.
The mark [5] stands for this setting: diffusion time 12 h, individual cultures n = 3.
[6] abbreviates: diffusion time 24 h, individual cultures n = 3.

Each structure is given as a SMILES string. Values joined by “and” are separate entries in the source; they are usually repeats but may differ in a detail not shown here. Identical values can stand only once.

For `N=C(N)NCCC[C@H](NC(=O)[C@H](CCCNC(=N)N)NC(=O)[C@H](CCCNC(=N)N)NC(=O)[C@H](CCC(N)=O)NC(=O)[C@H](CCCNC(=N)N)NC(=O)[C@H](CCCNC(=N)N)NC(=O)[C@H](CCCCN)NC(=O)[C@H](CCCCN)NC(=O)[C@H](CCCNC(=N)N)NC(=O)CNC(=O)[C@H](Cc1ccc(O)cc1)NC(=S)Nc1ccc2c(c1)C(=O)OC21c2ccc(O)cc2Oc2cc(O)ccc21)C(=O)O` [FITC-TAT], the “Effect of lowering the temperature to 4°C on diffusion of FITC-TAT across Transwell inserts” value in series [1] was “had no effect”; in series [2] (endothelial monolayers present, FITC-TAT 10 μM, Fig 1B), “substantially decreased”. Further, in series [2] (37°C, regardless of whether monolayers of brain endothelial cells were cultured on the membranes, Fig 1A and 1B), the “Diffusion of FITC-TAT from upper to lower chamber of Transwell inserts” value is “readily diffused across to the lower chamber”. In addition, the “Diffusion of FITC-TAT across bEnd.3 monolayer, FITC-TAT + TAT” value in series [2] (setting [4]) was 1.844 and 1.839 and 1.804; in series [2] (setting [5]) it was 42.0052 and 42.275 and 41.3436; in series [2] (setting [6]) it was 90.1666 and 89.6029 and 94.8903. Further, the “Diffusion of FITC-TAT across bEnd.3 monolayer, FITC-TAT + TATK/R>A” value was 1.736 and 1.755 and 1.705 in series [2] (setting [4]); 41.331 and 40.0366 and 39.1388 in series [2] (setting [5]); 85.9302 and 85.5824 and 85.3453 in series [2] (setting [6]). Besides, in series [2] (FITC-TAT 10 μM with 10 μM competitor, Fig 3D), the “Effect of the presence of non-FITC TAT or non-FITC TAT^K/R>A on permeability of the monolayer to FITC-TAT” value is given as “only marginally decreased”. The “Effect of NaN3 and 2-DG treatment regimens on ability of FITC-TAT to cross the monolayer” value in series [2] (FITC-TAT 10 μM, NaN3 10 mM and 2-DG 6 mM, 1 h pre-treatment or 24 h, Fig 2B) is reported as “neither treatment regimens had an effect”. The “Diffusion of FITC-TAT across bEnd.3 monolayer” value is 1.386 and 10.0745 and 1.495 and 1.465 and 7.9907 and 7.9 and 8.057 and 7.849 and 10.0907 and 10.1377 in series [2] (FITC-TAT 10 μM, 4°C, diffusion time 0 h, individual cultures n = 10); 2.727 and 10.2694 and 1.946 and 2.6148 and 12.2754 and 11.4859 and 13.8266 and 14.9326 and 10.2588 and 10.1802 in series [2] (FITC-TAT 10 μM, 4°C, diffusion time 0.5 h, individual cultures n = 10); 3.318 and 12.0592 and 3.998 and 4.153 and 14.099 and 14.1024 and 12.2279 and 14.4626 and 12.8546 and 12.5004 in series [2] (FITC-TAT 10 μM, 4°C, diffusion time 1 h, individual cultures n = 10); 4.184 and 12.4226 and 4.5396 and 5.958 and 21.4454 and 17.4004 and 16.7345 and 14.5981 and 18.4195 and 13.6876 in series [2] (FITC-TAT 10 μM, 4°C, diffusion time 2 h, individual cultures n = 10); 12.2948 and 22.4089 and 5.603 and 11.4776 and 26.9335 and 21.9034 and 18.3373 and 22.0326 and 23.9812 and 20.9146 in series [2] (FITC-TAT 10 μM, 4°C, diffusion time 4 h, individual cultures n = 10); 23.6561 and 36.4429 and 7.1971 and 15.1917 and 28.8919 and 24.9217 and 33.0378 and 37.6449 and 33.9313 and 51.5353 in series [2] (FITC-TAT 10 μM, 4°C, diffusion time 8 h, individual cultures n = 10). Moreover, the “Diffusion of FITC-TAT across bEnd.3 monolayer” value in series [2] (FITC-TAT 10 μM, 4°C, diffusion time 12 h, individual cultures n = 10) is 44.603 and 38.3865 and 18.3523 and 26.8326 and 40.1964 and 39.8496 and 31.2218 and 52.2936 and 30.2304 and 54.311; in series [2] (FITC-TAT 10 μM, 37°C, diffusion time 0 h, individual cultures n = 8), 2.7408 and 2.991 and 8.292 and 8.146 and 7.613 and 9.624 and 9.686 and 9.768; in series [2] (FITC-TAT 10 μM, 37°C, diffusion time 0.5 h, individual cultures n = 8), 5.546 and 5.194 and 16.5195 and 13.9086 and 14.4213 and 13.3482 and 14.7024 and 14.0517; in series [2] (FITC-TAT 10 μM, 37°C, diffusion time 1 h, individual cultures n = 8), 8.062 and 7.828 and 16.9226 and 16.4917 and 15.6732 and 12.2867 and 19.4469 and 13.4865; in series [2] (FITC-TAT 10 μM, 37°C, diffusion time 2 h, individual cultures n = 8), 13.5165 and 10.5024 and 28.7248 and 24.7001 and 24.2495 and 24.3505. In addition, the “FITC-TAT movement across the endothelial monolayer with cytochalasin D” value in series [2] (cells incubated with 100 μM cytochalasin D, FITC-TAT 10 μM, Fig 4D) is on record as “increased rather than inhibited”. In addition, the “Diffusion of FITC-linked peptide across bEnd.3 monolayer” value in series [2] (peptide 1 μM (Fig 3A), diffusion time 0.1 h, individual cultures n = 4) was 16.1034 and 15.6278 and 16.2621 and 16.9227; in series [2] (peptide 1 μM (Fig 3A), diffusion time 4 h, individual cultures n = 4) it was 33.068 and 35.9601 and 44.67 and 33.2662; in series [2] (peptide 1 μM (Fig 3A), diffusion time 12 h, individual cultures n = 4), 59.5062 and 62.0797 and 69.9514 and 60.3513; in series [2] (peptide 1 μM (Fig 3A), diffusion time 24 h, individual cultures n = 4), 98.4329 and 97.1083 and 108.448 and 96.0109; in series [2] (peptide 3 μM (Fig 3B), diffusion time 0.1 h, individual cultures n = 4), 5.536 and 5.776 and 5.613 and 5.958; in series [2] (peptide 3 μM (Fig 3B), diffusion time 4 h, individual cultures n = 4), 30.6967 and 26.8471 and 24.0637 and 21.038. Moreover, the “Diffusion of FITC-linked peptide across bEnd.3 monolayer” value in series [2] (peptide 3 μM (Fig 3B), diffusion time 12 h, individual cultures n = 4) was 69.4896 and 55.4891 and 51.5686 and 64.8124; in series [2] (peptide 3 μM (Fig 3B), diffusion time 24 h, individual cultures n = 4), 112.045 and 93.6163 and 91.1166 and 103.222; in series [2] (peptide 10 μM (Fig 3C), diffusion time 0.1 h, individual cultures n = 4), 1.488 and 1.536 and 1.502 and 1.69; in series [2] (peptide 10 μM (Fig 3C), diffusion time 4 h, individual cultures n = 4) it was 20.2675 and 19.471 and 18.2115 and 22.8397; in series [2] (peptide 10 μM (Fig 3C), diffusion time 12 h, individual cultures n = 4) it was 55.3743 and 53.9149 and 46.6389 and 56.9448; in series [2] (peptide 10 μM (Fig 3C), diffusion time 24 h, individual cultures n = 4), 95.2978 and 101.031 and 98.8203 and 104.851. Moreover, the “Diffusion of FITC-linked peptide across bEnd.3 monolayer” value is 1.749 and 1.772 and 1.79 in series [2] (peptide 10 μM alone (Fig 3D), diffusion time 0.1 h, individual cultures n = 3); 43.9695 and 46.4386 and 47.7244 in series [2] (peptide 10 μM alone (Fig 3D), diffusion time 12 h, individual cultures n = 3); 96.1412 and 98.5343 and 105.324 in series [2] (peptide 10 μM alone (Fig 3D), diffusion time 24 h, individual cultures n = 3).

As for `N=C(N)NCCC[C@H](NC(=O)[C@H](CCCNC(=N)N)NC(=O)[C@H](CCCNC(=N)N)NC(=O)[C@H](CCC(N)=O)NC(=O)[C@H](CCCNC(=N)N)NC(=O)[C@H](CCCNC(=N)N)NC(=O)[C@H](CCCCN)NC(=O)[C@H](CCCCN)NC(=O)[C@H](CCCNC(=N)N)NC(=O)CNC(=O)[C@@H](N)Cc1ccc(O)cc1)C(=O)O` [TAT], the “Effect of TAT on the amount of albumin that crossed the monolayer” value in series [3] is reported as “significantly increased”.
